Paper PMC13266999, “Designing Antibiotics with Inherent Resistance to Efflux as a Strategy to Revive Discovery against Multidrug-Resistant Pathogens” (Journal of Medicinal Chemistry, 2026)
≈ marks a conversion by molar mass, not a printed value. Where “and” joins values, the source holds several entries; their conditions need not be identical. Equal values may be shown once. Read-outs that look alike come from different tables or passages of the source.

How the values were obtained:
[1] = tested on: A. baumannii; assay: A. baumannii efflux chequerboard assay; type: cell-based, Acinetobacter baumannii; conditions: for MIC: Acinetobacter baumannii
Method: Checkerboard assays were performed by preparing two separate 2-fold dilution series of compounds in two 96 well plates, one horizontally, one vertically. […] Plates were incubated at 37 C for 20 h and the absorbance (OD600) was read on a CLARIOstar spectrophotometer (BMG Labtech). The fractional inhibitory concentration was calculated as follows: ΣFIC = [(MIC of A in combination)/(MIC of A alone)] + [(MIC of B in combination)/(MIC of B alone)].

[2] = tested on: S. aureus; assay: MIC (microbroth dilution); type: cell-based, Staphylococcus aureus; conditions: for fold difference in MIC, SA-1199B vs SA-1199: NorA-overexpressing vs WT; for MIC: Staphylococcus aureus
Method: (§1) All bacteria were maintained on tryptic soy agar (TSA), except Streptococcus spp., which were maintained on Columbia agar plates containing 5% horse blood. […] Bacteria were grown to stationary phase in liquid culture overnight, with shaking at 200 rpm, before being back diluted to the relevant starting concentration for each assay below. MICs were measured by the microbroth dilution method. […] Absorbance at OD600 was read on a CLARIOstar spectrophotometer (BMG Labtech) and the MIC was defined as the minimum concentration of compound where no visible growth was detected. […] MICs were also performed in the presence of the outer membrane permeator, polymyxin b nonapeptide (PMBN) following the same MIC method but with the following variation. The 2-fold dilution series of compound was prepared as above, then 50 μL of PMBN at a final concentration of 30 μg/mL was added to relevant wells, while 50 μL/well of blank media was added to the remaining wells. Bacteria were then added at 50 μL/well for a starting concentration as above. […] The MICs were read and defined as above. All animal procedures were performed by the contract research organization Pharmacology Discovery Services Taiwan in accordance with the Guide for the Care and Use of Laboratory Animals. The procedures were approved by the Institutional Ethics Committee of Pharmacology Discovery Services Taiwan, Ltd. (approval no. AB127662), in compliance with animal welfare legislation in Taiwan.

[3] = tested on: NorA overexpressing strain NCTC 13616; assay: Reserpine growth (efflux inhibition) assay; conditions: for AUC of growth curve: biological replicates 1-3
Method: Statistical analyses were performed with GraphPad Prism V9.5.0. […] Unpaired t tests were used when comparing two samples in the gyrase assays.

[4] = tested on: E. faecalis; assay: MIC (microbroth dilution); type: cell-based, Enterococcus faecalis; conditions: Enterococcus faecalis, read-out: MIC
Method: as §1

[5] = ATCC9144, ATCC 9144, read-out: MIC
[6] = NCTC13277, NCTC 13277, read-out: MIC
[7] = NCTC13616, NCTC 13616, read-out: MIC
[8] = ATCC17978, A. baumannii ATCC 17978, read-out: MIC alone
[9] = A. baumannii AYE, read-out: MIC alone

Molecule: Colistin
- MIC +50 (0.25x MIC) ([1]; A. baumannii ATCC 17978): 0.015 to 0.123 µg/mL
- MIC +50 (0.5x MIC) ([1]; A. baumannii ATCC 17978): 0.0017 to 0.015 µg/mL
- MIC alone ([1]; A. baumannii ATCC 17978): 0.25 µg/mL
- MIC +50 (0.25x MIC) ([1]; A. baumannii AYE): 0.015 µg/mL
- MIC +50 (0.5x MIC) ([1]; A. baumannii AYE): 0.003 to 0.007 µg/mL
- MIC alone ([1]; A. baumannii AYE): 0.25 to 0.5 µg/mL

Molecule: C[C@H]1COc2c(N3CCC(Nc4ncccn4)C3)c(F)cc3c(=O)c(C(=O)O)cn1c23 (stereo partly drawn) [Compound 43, (3S)-9-Fluoro-3-methyl-7-oxo-10-(3-(pyrimidin-2-ylamino)pyrrolidin-1-yl)-2,3-dihydro-7H-[1,4]oxazino[2,3,4-ij]quinoline-6-carboxylic acid]
- fold difference in MIC, SA-1199B vs SA-1199 [2]: 2 fold
- MIC [2, 5]: 0.125 µg/mL (≈ 0.294 µM)
- MIC [2, 6]: 2 µg/mL (≈ 4.7 µM)
- MIC [2, 7]: 2 µg/mL (≈ 4.7 µM)
- MIC ([2]; SA-1199, read-out: MIC): 0.016 µg/mL (≈ 0.0376 µM)
- MIC ([2]; SA-1199B (NorA-overexpressing)): 0.03 µg/mL (≈ 0.0705 µM)
- fold potentiation compared to levofloxacin ([2]; fluoroquinolone-resistant NCTC 13616 and NCTC 13277): 8 fold
- AUC of growth curve ([3]; 0.25 MIC + R (reserpine)): 2.601 and 2.681 and 2.535
- AUC of growth curve ([3]; 0.25 MIC): 3.079 and 3.208 and 2.944
- AUC of growth curve ([3]; 0.5 MIC + R (reserpine)): 0.9550 and 0.7355 and 0.8940
- AUC of growth curve ([3]; 0.5 MIC): 1.061 and 0.9440 and 1.050
- efflux liability in reserpine assay ([3]; 0.5x MIC with vs without reserpine): did not demonstrate efflux liability

Molecule: O=C(N[C@H](CO)[C@H](O)c1ccc([N+](=O)[O-])cc1)C(Cl)Cl [Chloramphenicol]
- MIC +50 (0.25x MIC) ([1]; A. baumannii ATCC 17978): 60 µg/mL
- MIC +50 (0.5x MIC) ([1]; A. baumannii ATCC 17978): 56 µg/mL
- MIC +50 (0.25x MIC) ([1]; A. baumannii AYE): 120 µg/mL
- MIC +50 (0.5x MIC) ([1]; A. baumannii AYE): 224 µg/mL
- MIC ([1]; ATCC17978, read-out: MIC alone): 64 µg/mL
- MIC ([1]; read-out: MIC alone): 128 µg/mL

Molecule: O=C(O)c1cn(C2CC2)c2c(Cc3cccc4ccccc34)c(N3CCNCC3)c(F)cc2c1=O [Compound 19, 1-Cyclopropyl-6-fluoro-8-(naphthalen-1-ylmethyl)-4-oxo-7-(piperazin-1-yl)-1,4-dihydroquinoline-3-carboxylic acid]
- MIC [2, 5]: 64 µg/mL (≈ 136 µM)
- MIC [2, 6]: 32 µg/mL (≈ 67.9 µM)
- MIC [2, 7]: 32 µg/mL (≈ 67.9 µM)
- MIC ([2]; SA-1199, read-out: MIC): 16 µg/mL (≈ 33.9 µM)
- MIC ([2]; SA-1199B (NorA-overexpressing)): 16 µg/mL (≈ 33.9 µM)
- MIC ([2]; USA300, USA300, read-out: MIC): 32 µg/mL (≈ 67.9 µM)
- MIC ([4]; NCTC775, NCTC 775): 16 µg/mL (≈ 33.9 µM)
- MIC ([4]; NCTC12201, NCTC 12201): 16 µg/mL (≈ 33.9 µM)
- MIC ([4]; NCTC12204, NCTC 12204): 16 µg/mL (≈ 33.9 µM)

Molecule: O=C(O)c1cn(C2CC2)c2cc(N3CCN[C@@H](Cc4cccc5ccccc45)C3)c(F)cc2c1=O [Compound 12, (S)-1-Cyclopropyl-6-fluoro-7-(3-(naphthalen-1-ylmethyl)piperazin-1-yl)-4-oxo-1,4-dihydroquinoline-3-carboxylic acid]
- MIC [2, 5]: 4 µg/mL (≈ 8.48 µM)
- MIC [2, 6]: 8 µg/mL (≈ 17 µM)
- MIC [2, 7]: 8 µg/mL (≈ 17 µM)
- MIC ([2]; SA-1199, read-out: MIC): 2 µg/mL (≈ 4.24 µM)
- MIC ([2]; SA-1199B (NorA-overexpressing)): 4 µg/mL (≈ 8.48 µM)
- MIC ([2]; USA300, USA300, read-out: MIC): 8 to 16 µg/mL (≈ 17 to 33.9 µM)
- MIC ([4]; NCTC775, NCTC 775): 8 µg/mL (≈ 17 µM)
- MIC ([4]; NCTC12201, NCTC 12201): 8 µg/mL (≈ 17 µM)
- MIC ([4]; NCTC12204, NCTC 12204): 8 µg/mL (≈ 17 µM)

Molecule: CC(C)(O/N=C(\C(=O)N[C@@H]1C(=O)N2C(C(=O)[O-])=C(C[n+]3ccccc3)CS[C@H]12)c1csc(N)n1)C(=O)O [Ceftazidime]
- MIC +50 (0.25x MIC) ([1]; A. baumannii ATCC 17978): 0.94 to 3.76 µg/mL
- MIC +50 (0.5x MIC) ([1]; A. baumannii ATCC 17978): 0.003 to 0.438 µg/mL
- MIC +50 (0.25x MIC) ([1]; A. baumannii AYE): >1,024 μg/mL
- MIC +50 (0.5x MIC) ([1]; A. baumannii AYE): 3.76 to 224 µg/mL
- MIC [1, 8]: 4 to 16 µg/mL
- MIC [1, 9]: > 1020 µg/mL

Molecule: NC[C@H]1O[C@H](O[C@H]2[C@H](O)[C@@H](O[C@H]3O[C@H](CO)[C@@H](O)[C@H](N)[C@H]3O)[C@H](N)C[C@@H]2N)[C@H](N)C[C@@H]1O [Tobramycin]
- MIC +50 (0.25x MIC) ([1]; A. baumannii ATCC 17978): 1.88 to 3.76 µg/mL
- MIC +50 (0.5x MIC) ([1]; A. baumannii ATCC 17978): 0.014 to 0.55 µg/mL
- MIC +50 (0.25x MIC) ([1]; A. baumannii AYE): 56 to 248 µg/mL
- MIC +50 (0.5x MIC) ([1]; A. baumannii AYE): 0.375 to 136 µg/mL
- MIC [1, 8]: 4 µg/mL
- MIC [1, 9]: 256 µg/mL

Molecule: C[C@H]1COc2c(N3CCN(c4ncccn4)CC3)c(F)cc3c(=O)c(C(=O)O)cn1c23 [Compound 42, (S)-9-Fluoro-3-methyl-7-oxo-10-(4-(pyrimidin-2-yl)piperazin-1-yl)-2,3-dihydro-7H-[1,4]oxazino[2,3,4-ij]quinoline-6-carboxylic acid]
- fold difference in MIC, SA-1199B vs SA-1199 [2]: 4 fold
- MIC [2, 5]: 0.06 µg/mL (≈ 0.141 µM)
- MIC [2, 6]: > 32 µg/mL
- MIC [2, 7]: 8 µg/mL (≈ 18.8 µM)
- MIC ([2]; SA-1199, read-out: MIC): 0.06 µg/mL (≈ 0.141 µM)
- MIC ([2]; SA-1199B (NorA-overexpressing)): 0.25 µg/mL (≈ 0.588 µM)
- AUC of growth curve ([3]; 0.25 MIC + R (reserpine)): 1.819 and 2.376 and 1.866
- AUC of growth curve ([3]; 0.25 MIC): 2.249 and 2.537 and 2.169
- AUC of growth curve ([3]; 0.5 MIC + R (reserpine)): 1.376 and 1.633 and 1.162
- AUC of growth curve ([3]; 0.5 MIC): 1.682 and 1.538 and 1.705

Molecule: CNC(C)C1CCC(N)C(OC2C(N)CC(N)C(OC3OCC(C)(O)C(NC)C3O)C2O)O1 (stereo not drawn) [Gentamicin]
- MIC +50 (0.25x MIC) ([1]; A. baumannii ATCC 17978): 2.13 to 4.25 µg/mL
- MIC +50 (0.5x MIC) ([1]; A. baumannii ATCC 17978): 0.03 to 1.75 µg/mL
- MIC +50 (0.25x MIC) ([1]; A. baumannii AYE): >1,024 μg/mL
- MIC [1, 8]: 4 µg/mL
- MIC [1, 9]: > 1020 µg/mL

Molecule: O=C(O)c1cn(C2CC2)c2cc(N3CCN(Cc4ccc(F)c5ccccc45)CC3)c(F)cc2c1=O [Compound 35, 1-Cyclopropyl-6-fluoro-7-(4-((4-fluoronaphthalen-1-yl)methyl)piperazin-1-yl)-4-oxo-1,4-dihydroquinoline-3-carboxylic acid]
- MIC [2, 5]: 4 µg/mL (≈ 8.17 µM)
- MIC [2, 6]: 8 µg/mL (≈ 16.3 µM)
- MIC [2, 7]: 4 µg/mL (≈ 8.17 µM)

Molecule: c1ccc2c(CN3CCNCC3)cccc2c1 [NMP, 1-(naphthalen-1-ylmethyl)piperazine, reference compound]
- fold improvement over ciprofloxacin alone ([2]; fluoroquinolone-resistant S. aureus strains): 2 fold

Molecule: O=C(O)c1cn(C2CC2)c2cc(N3CCN(Cc4ccccc4)CC3)c(F)cc2c1=O [Compound 25, 7-(4-Benzylpiperazin-1-yl)-1-cyclopropyl-6-fluoro-4-oxo-1,4-dihydro quinoline-3-carboxylic acid]
- MIC [2, 5]: 0.125 to 0.25 µg/mL (≈ 0.297 to 0.593 µM)
- MIC [2, 6]: 32 µg/mL (≈ 75.9 µM)
- MIC [2, 7]: 16 to 32 µg/mL (≈ 38 to 75.9 µM)

Molecule: O=C(O)c1cn(C2CC2)c2cc(N3CCN(Cc4cccc5cccnc45)CC3)c(F)cc2c1=O [Compound 27, 1-Cyclopropyl-6-fluoro-4-oxo-7-(4-(quinolin-8-ylmethyl)piperazin-1-yl)-1,4-dihydroquinoline-3-carboxylic acid]
- MIC [2, 5]: 0.5 µg/mL (≈ 1.06 µM)
- MIC [2, 6]: 128 µg/mL (≈ 271 µM)
- MIC [2, 7]: 64 µg/mL (≈ 135 µM)
- MIC ([2]; SA-1199, read-out: MIC): 0.125 µg/mL (≈ 0.265 µM)
- MIC ([2]; SA-1199B (NorA-overexpressing)): 0.25 µg/mL (≈ 0.529 µM)
